Measured values published in article PMC8989888, “Development of optimized drug-like small molecule inhibitors of the SARS-CoV-2 3CL protease for treatment of COVID-19” (Nature Communications, 2022).
Values joined by “and” are separate entries in the source; they are usually repeats but may differ in a detail not shown here. Identical values can stand only once. “Also recorded” adds a separate entry of the source. Like-named read-outs stand apart in the source and are kept apart here.

Experiments:
[1] = tested on: human chymotrypsin; assay: Chymotrypsin activity assay (Panc-1 cell lysate); type: biochemical
[2] = tested on: SARS-CoV-2; assay: microbe, parasite or virus in culture; type: cell-based
[3] = tested on: SARS-CoV-2; assay: microbe, parasite or virus in culture; type: cell-based; conditions: for EC50: Severe acute respiratory syndrome coronavirus 2, 24 h, read-out: SARS-CoV-2 Huh-7ACE2 EC50
[4] = tested on: SARS-CoV-2; assay: microbe, parasite or virus in culture; type: cell-based; conditions: Severe acute respiratory syndrome coronavirus 2, read-out: SARS-CoV-2 EC50
[5] = biological target: T1, Cathepsin L (Homo sapiens, UniProt P07711); conditions: read-out: IC50 on human cathepsin L; cited from earlier work
T1 construct: Human liver; from tissue; host or cells: human liver
T1 sequence (P07711 114-333): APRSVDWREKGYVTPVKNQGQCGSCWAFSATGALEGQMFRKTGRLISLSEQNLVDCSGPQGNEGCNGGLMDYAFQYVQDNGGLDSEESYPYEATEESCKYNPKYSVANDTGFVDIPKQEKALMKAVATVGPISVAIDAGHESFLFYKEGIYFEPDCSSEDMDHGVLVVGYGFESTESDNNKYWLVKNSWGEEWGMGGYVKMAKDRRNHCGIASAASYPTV

[6] = in vitro; conditions: human, plasma
[7] = in vitro; conditions: CD-1, mouse, plasma
[8] = in vitro; conditions: human, microsomes, pH 7.4
[9] = in vitro; conditions: CD-1, mouse, microsomes, pH 7.4
[10] = physchem; conditions: aqueous buffer, kinetic from dmso stock
[11] = biological target: T2, SARS-CoV-2 3CL protease (Severe acute respiratory syndrome coronavirus 2, UniProt P0DTD1); assay: biochemical; conditions: for IC50: read-out: SARS-CoV-2 3CLpro IC50
[12] = biological target: T2, SARS-CoV-2 3CL protease; assay: biochemical
[13] = biological target: ACE1 (Homo sapiens, UniProt P12821); assay: biochemical
ACE1, sequence (P12821 30-1261): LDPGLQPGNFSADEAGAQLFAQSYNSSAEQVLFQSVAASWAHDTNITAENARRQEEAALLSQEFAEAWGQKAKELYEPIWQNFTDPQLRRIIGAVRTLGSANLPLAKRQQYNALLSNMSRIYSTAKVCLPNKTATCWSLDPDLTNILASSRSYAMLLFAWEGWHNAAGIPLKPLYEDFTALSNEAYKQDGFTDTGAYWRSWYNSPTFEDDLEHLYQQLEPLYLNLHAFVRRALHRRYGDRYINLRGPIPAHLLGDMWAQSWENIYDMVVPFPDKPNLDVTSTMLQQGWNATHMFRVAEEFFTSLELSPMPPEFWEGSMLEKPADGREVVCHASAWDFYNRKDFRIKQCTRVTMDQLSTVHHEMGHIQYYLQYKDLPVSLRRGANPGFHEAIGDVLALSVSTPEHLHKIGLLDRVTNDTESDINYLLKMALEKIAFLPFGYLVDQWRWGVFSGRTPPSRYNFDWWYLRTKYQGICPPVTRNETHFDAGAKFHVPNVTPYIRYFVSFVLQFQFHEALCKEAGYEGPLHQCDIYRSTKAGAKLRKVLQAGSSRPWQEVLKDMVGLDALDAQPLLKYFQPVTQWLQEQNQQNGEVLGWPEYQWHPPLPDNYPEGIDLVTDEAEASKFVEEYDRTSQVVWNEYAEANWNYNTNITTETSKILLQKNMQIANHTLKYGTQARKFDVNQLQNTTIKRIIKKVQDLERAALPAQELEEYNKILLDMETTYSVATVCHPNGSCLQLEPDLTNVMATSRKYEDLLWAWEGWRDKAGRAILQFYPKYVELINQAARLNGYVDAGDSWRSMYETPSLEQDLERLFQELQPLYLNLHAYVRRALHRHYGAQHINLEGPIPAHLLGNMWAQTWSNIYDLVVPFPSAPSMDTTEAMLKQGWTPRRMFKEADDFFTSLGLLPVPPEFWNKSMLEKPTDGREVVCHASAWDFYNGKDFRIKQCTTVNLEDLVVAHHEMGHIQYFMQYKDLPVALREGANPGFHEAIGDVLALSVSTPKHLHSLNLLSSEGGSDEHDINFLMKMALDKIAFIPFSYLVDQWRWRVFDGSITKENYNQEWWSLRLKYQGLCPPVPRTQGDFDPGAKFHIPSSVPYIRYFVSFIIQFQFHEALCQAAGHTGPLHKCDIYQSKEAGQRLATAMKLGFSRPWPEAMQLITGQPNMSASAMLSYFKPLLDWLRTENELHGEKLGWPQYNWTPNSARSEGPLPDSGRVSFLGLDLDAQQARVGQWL

[14] = biological target: ACE2 (Homo sapiens, UniProt Q9BYF1); assay: biochemical
ACE2, sequence (Q9BYF1 18-740): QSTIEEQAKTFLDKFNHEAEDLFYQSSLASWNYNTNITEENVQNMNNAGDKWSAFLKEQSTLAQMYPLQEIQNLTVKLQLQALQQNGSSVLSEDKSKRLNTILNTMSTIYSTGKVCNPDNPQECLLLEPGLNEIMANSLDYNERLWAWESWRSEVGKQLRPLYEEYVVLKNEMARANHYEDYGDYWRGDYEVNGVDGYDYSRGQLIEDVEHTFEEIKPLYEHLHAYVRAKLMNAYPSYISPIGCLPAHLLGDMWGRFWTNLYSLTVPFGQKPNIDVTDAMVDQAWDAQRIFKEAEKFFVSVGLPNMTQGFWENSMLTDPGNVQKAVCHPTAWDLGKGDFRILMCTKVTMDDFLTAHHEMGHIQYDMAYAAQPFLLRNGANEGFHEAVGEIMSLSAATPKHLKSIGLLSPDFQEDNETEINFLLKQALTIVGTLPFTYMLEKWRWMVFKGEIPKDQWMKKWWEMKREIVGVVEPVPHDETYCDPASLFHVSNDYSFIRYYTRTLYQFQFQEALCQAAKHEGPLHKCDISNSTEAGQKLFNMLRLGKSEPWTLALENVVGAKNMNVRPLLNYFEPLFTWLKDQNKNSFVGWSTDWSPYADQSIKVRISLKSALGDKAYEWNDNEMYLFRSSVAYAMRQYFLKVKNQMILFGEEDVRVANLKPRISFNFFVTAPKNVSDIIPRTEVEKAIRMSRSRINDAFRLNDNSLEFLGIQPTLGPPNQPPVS

[15] = biological target: Caspase 8 (Homo sapiens, UniProt Q14790); assay: biochemical
Caspase 8, sequence (Q14790 217-479): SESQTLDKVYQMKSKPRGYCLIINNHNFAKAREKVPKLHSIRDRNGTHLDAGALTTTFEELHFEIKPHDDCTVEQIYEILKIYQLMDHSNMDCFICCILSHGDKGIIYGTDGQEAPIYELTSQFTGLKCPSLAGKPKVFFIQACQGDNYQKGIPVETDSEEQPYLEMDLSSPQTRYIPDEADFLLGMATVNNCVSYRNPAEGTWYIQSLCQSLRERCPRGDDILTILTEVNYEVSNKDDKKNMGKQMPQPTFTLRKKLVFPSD

[16] = biological target: Cathepsin B (Homo sapiens, UniProt P07858); assay: biochemical
[17] = biological target: T1, Cathepsin L; assay: Protease selectivity panel: Cathepsin L; type: biochemical
[18] = biological target: Elastase (Homo sapiens, UniProt P08246); assay: biochemical
Elastase, sequence (P08246 30-267): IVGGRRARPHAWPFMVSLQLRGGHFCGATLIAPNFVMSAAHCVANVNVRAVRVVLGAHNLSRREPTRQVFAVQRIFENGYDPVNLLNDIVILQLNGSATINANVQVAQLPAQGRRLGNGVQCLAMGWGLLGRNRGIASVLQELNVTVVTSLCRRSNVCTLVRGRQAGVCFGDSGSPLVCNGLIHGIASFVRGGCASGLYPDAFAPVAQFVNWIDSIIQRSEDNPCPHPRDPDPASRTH

[19] = biological target: Factor Xa (Homo sapiens, UniProt P00742); assay: biochemical
Factor Xa, sequence (P00742 235-488): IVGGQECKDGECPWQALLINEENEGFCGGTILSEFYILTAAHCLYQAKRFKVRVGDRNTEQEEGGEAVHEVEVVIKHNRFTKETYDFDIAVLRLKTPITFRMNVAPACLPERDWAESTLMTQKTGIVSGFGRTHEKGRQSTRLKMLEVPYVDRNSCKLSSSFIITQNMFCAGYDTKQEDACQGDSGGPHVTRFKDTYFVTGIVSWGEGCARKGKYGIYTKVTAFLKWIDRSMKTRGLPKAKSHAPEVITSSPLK
Factor Xa, sequence (P00742 41-179): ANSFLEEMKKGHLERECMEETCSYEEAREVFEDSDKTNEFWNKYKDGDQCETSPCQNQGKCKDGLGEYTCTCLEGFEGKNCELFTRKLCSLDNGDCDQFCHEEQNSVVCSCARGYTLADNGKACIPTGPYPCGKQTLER

[20] = biological target: Furin (Homo sapiens, UniProt P09958); assay: biochemical
Furin, sequence (P09958 108-715): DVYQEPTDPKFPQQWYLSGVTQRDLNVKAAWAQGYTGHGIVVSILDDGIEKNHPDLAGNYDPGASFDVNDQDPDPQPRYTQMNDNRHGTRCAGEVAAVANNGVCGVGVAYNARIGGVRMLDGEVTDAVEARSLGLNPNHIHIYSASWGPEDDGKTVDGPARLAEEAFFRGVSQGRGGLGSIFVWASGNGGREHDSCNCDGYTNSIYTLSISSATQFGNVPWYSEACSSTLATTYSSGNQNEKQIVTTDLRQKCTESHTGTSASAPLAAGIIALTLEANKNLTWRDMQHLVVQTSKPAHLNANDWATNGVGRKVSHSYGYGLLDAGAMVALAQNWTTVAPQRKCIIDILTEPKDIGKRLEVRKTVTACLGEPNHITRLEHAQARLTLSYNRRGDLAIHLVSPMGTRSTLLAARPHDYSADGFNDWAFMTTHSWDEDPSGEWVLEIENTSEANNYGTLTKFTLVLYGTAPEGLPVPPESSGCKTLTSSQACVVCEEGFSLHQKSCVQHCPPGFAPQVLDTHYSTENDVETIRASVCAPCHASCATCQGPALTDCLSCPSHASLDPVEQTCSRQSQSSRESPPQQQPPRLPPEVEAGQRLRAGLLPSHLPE

[21] = biological target: MMP 1 (Homo sapiens, UniProt P03956); assay: biochemical
MMP 1, sequence (P03956 100-268): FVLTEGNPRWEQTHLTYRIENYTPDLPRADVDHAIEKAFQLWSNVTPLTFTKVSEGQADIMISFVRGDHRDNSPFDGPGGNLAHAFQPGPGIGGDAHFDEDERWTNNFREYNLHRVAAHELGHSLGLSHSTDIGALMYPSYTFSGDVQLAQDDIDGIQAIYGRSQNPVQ

[22] = biological target: PLpro (Severe acute respiratory syndrome coronavirus 2, UniProt P0DTD1); assay: Protease selectivity panel: PLpro; type: biochemical; conditions: SARS-CoV-2 recombinant
[23] = biological target: Thrombin a (Homo sapiens, UniProt P00734); assay: biochemical
[24] = biological target: TMPRSS2 (Homo sapiens, UniProt O15393); assay: biochemical
TMPRSS2, sequence (O15393 106-492): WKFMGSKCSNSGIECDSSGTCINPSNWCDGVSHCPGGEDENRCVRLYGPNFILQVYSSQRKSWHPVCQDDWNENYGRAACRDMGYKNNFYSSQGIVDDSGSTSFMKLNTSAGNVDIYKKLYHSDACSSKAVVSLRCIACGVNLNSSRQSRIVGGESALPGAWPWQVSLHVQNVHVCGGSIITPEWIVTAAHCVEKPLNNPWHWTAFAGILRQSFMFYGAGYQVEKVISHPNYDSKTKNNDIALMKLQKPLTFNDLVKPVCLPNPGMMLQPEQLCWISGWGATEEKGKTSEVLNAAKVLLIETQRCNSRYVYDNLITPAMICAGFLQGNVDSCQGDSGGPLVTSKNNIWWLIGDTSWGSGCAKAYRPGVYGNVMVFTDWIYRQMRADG

[25] = biological target: Trypsin (Bos taurus, UniProt P00760); assay: Protease selectivity panel: Trypsin; type: biochemical; conditions: Bovine pancreas
Trypsin, sequence (P00760 24-246): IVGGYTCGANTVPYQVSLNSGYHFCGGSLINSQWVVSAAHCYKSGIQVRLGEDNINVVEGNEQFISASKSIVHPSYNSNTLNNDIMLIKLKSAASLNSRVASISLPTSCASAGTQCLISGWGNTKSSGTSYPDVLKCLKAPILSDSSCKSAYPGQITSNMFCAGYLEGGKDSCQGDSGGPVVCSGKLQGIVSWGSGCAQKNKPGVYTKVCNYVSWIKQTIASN

[26] = biological target: Urokinase (Homo sapiens, UniProt P00749); assay: biochemical
[27] = tested on: SARS coronavirus (strain: Urbani); assay: organism not typed; type: cell-based, SARS-CoV
[28] = tested on: MERS Coronavirus (strain: EMC); assay: microbe, parasite or virus in culture; type: cell-based, MERS-CoV
[29] = tested on: Human coronavirus alpha (strain: 229E); assay: organism not typed; type: cell-based, HCoV-229E
[30] = tested on: Human coronavirus beta (strain: OC43); assay: organism not typed; type: cell-based, HCoV-OC43; conditions: Huh-7, read-out: EC50, human coronavirus OC43
[31] = tested on: Influenza A H1N1 (strain: California/07/2009); assay: microbe, parasite or virus in culture; type: cell-based
[32] = mouse, in vivo, po
[33] = both, C57BL/6, mouse, in vivo
[34] = in vitro
[35] = tested on: SARS-CoV-2; assay: microbe, parasite or virus in culture; conditions: Severe acute respiratory syndrome coronavirus 2, Caco-2, 72 h, read-out: SARS-CoV-2 Caco-2 EC90
[36] = biological target: Cathepsin K (Homo sapiens, UniProt P43235); assay: Protease selectivity panel: Cathepsin K
Cathepsin K, sequence (P43235 115-329): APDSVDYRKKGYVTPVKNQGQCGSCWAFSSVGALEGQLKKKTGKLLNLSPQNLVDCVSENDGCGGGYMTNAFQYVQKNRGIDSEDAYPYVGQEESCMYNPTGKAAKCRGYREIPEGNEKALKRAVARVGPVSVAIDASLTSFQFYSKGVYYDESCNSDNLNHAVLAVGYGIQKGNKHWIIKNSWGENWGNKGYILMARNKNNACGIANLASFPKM

[37] = biological target: Cathepsin S (Homo sapiens, UniProt P25774); assay: Protease selectivity panel: Cathepsin S
Cathepsin S, sequence (P25774 115-331): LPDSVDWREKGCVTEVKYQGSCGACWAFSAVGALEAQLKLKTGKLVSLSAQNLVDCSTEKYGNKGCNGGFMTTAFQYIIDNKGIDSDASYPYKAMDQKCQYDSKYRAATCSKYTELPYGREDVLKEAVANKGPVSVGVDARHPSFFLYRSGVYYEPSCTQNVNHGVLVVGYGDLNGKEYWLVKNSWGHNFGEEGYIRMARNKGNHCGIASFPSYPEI

[38] = In vivo safety study of NK01-63 (body weight); conditions: C57BL/6 mice, 20 mg/kg IP or PO once per day, 14 days, vs vehicle

CC(C)CC(NC(=O)OCc1ccccc1)C(=O)NC(CC1CCNC1=O)C(O)S(=O)(=O)O (stereo not shown) [GC376, reference compound]
Normalized chymotrypsin activity [1]: 1.05 and 0.8698 and 0.9664
Protease activity in cell lysate normalised to DMSO (Figure S22D) [1]: 1.05 and 0.8698 and 0.9664
EC50 ([2]; Severe acute respiratory syndrome coronavirus 2, Vero C1008, 72 h, read-out: EC50, inhibition of SARS-CoV-2 viral replication): 6 µM
EC50 ([2]; Severe acute respiratory syndrome coronavirus 2, Vero C1008, read-out: SARS-CoV-2 Vero E6 EC50): 9 µM
EC50 [3]: 51 nM
EC50 [4]: 146 nM
concentrations at which turbidity was observed: 25 to 200 mM
IC50 [5]: 0.33 nM
half-life [6]: > 240 min
half-life [7]: > 240 min
half-life [8]: > 80 min
half-life [9]: > 80 min
solubility [10]: ≤ 1000 µM

CC(C)C[C@H](NC(=O)OCc1cccc(C(F)(F)F)c1)C(=O)N[C@@H](C[C@@H]1CCNC1=O)C(O)S(=O)(=O)O (stereo partly shown) [NK01-63]
IC50 ([11]; 20 nM protease): 16 nM
normalized activity, dose-response curve (Figure S16) ([11]; Concentration of inhibitor (nM) 0.19382): 93.111 and 89.2676
normalized activity, dose-response curve (Figure S16) ([11]; Concentration of inhibitor (nM) 0.49485): 89.4126 and 81.5809
normalized activity, dose-response curve (Figure S16) ([11]; Concentration of inhibitor (nM) 0.79588): 77.0123 and 75.7796
normalized activity, dose-response curve (Figure S16) ([11]; Concentration of inhibitor (nM) 1.09691): 63.0167 and 61.2038
normalized activity, dose-response curve (Figure S16) ([11]; Concentration of inhibitor (nM) 1.39794): 43.8724 and 49.3111
normalized activity, dose-response curve (Figure S16) ([11]; Concentration of inhibitor (nM) 1.69897): 23.8579 and 30.4568
normalized activity, dose-response curve (Figure S16) ([11]; Concentration of inhibitor (nM) 2): 10.3698 and 13.7056
normalized activity, dose-response curve (Figure S16) ([11]; Concentration of inhibitor (nM) 2.30103): 8.412 and 10.6599
normalized activity, dose-response curve (Figure S16) ([11]; Concentration of inhibitor (nM) 2.60206): 5.004 and 8.702
normalized activity, dose-response curve (Figure S16) ([11]; Concentration of inhibitor (nM) -0.10721): 91.5881 and 97.1719
normalized activity, dose-response curve (Figure S16) ([11]; Concentration of inhibitor (nM) -0.40824): 100 and 96.1566
IC50 ([11]; Supplementary Table 2): 6 nM
observed inactivation rate vs compound concentration (Figure S19, replicate values) [12]: 0.0289 and 0.04017 and 0.02561 and 0.0288 and 0.05998 and 0.02398 and 0.0512 and 0.02223 and 0.03571 and 0.0324 and 0.05689 and 0.02237 and 0.0081 and 0.01635 and 0.01687
kinact/KI ([12]; read-out: SARS-CoV-2 3CLpro kinact/KI): 73300 M⁻¹ s⁻¹
IC50 [13]: > 100 µM
IC50 [14]: > 100 µM
IC50 [15]: 18 µM
IC50 [16]: 1100 nM
IC50 ([17]; Human liver, substrate 1 (Z-FR-AMC), […] Cathepsin L, read-out: IC50): 6 nM
IC50 ([17]; Human liver, substrate 2 (MCA-PLGL-Dap(Dnp)-AR-NH2), 0.5 nM Cathepsin L, read-out: IC50): 170 nM
IC50 ([17]; read-out: IC50 on human cathepsin L): 6 nM
IC50 [18]: > 100 µM
IC50 [19]: > 100 µM
IC50 [20]: > 100 µM
IC50 [21]: > 100 µM
IC50 [22]: > 100 µM
IC50 [23]: > 100 µM
IC50 [24]: > 100 µM
IC50 [25]: > 100 µM
IC50 [26]: > 100 µM
inhibition of SARS-CoV-2 (Figure s17b dose-response, replicate values) [3]: 85.8805 and 70.4035 and 120.64 and 101.121 and 104.666 and 80.4107 and 75.7397 and 52.4625 and 52.0629 and 53.1789 and 26.443 and 29.7439 and 43.7589 and 41.2695 and 18.2065 and 24.2009 and 38.2936 and 12.6905 and -1.598 and 19.9884 and -12.0156
EC50 [3]: 6 nM
EC50 [4]: 146 nM
EC50 ([27]; Vero 76, read-out: SARS-CoV Vero 76 EC50): < 3000 nM
EC50 ([27]; read-out: SARS-CoV Vero 76 EC50): 2100 nM
EC50 ([28]; Middle East respiratory syndrome-related coronavirus, Vero 76, read-out: MERS-CoV Vero 76 EC50): < 1000 nM
EC50 ([28]; read-out: MERS-CoV Vero 76 EC50): 820 nM
EC50 ([29]; Huh-7, read-out: EC50, human coronavirus 229E): < 100 nM
EC50 ([29]; Huh-7, read-out: HCoV-229E Huh-7 EC50): 170 nM
EC50 [30]: < 100 nM
effect on replication of Influenza H1N1 (in words) [31]: no effect was observed
EC50 ([31]; Influenza A virus, H1N1, MDCK, read-out: Influenza A (H1N1) MDCK EC50): > 100 µM
appearance of dosing solution in water (2 mg/ml (3.5 mM) in water): the solution was clear
Body weight relative to day 0 (Figure 6A) [32]: 100
concentration in plasma and lung as multiple of EC90 [33]: > 100 x EC90
CC50 [34]: > 100 µM
EC90 [35]: 81 nM
IC50 [36]: 40 nM
IC50 [37]: 30 nM
body weight change / in vivo toxicity [38]: no in vivo toxicity via either route of administration; also recorded: No significant change in body weight
